Test results from patent US20130060013A1, “Compounds useful for treating neurodegenerative disorders” (SATORI PHARMACEUTICALS, INC., priority 2011, published 2013).

Columns and labels:
Type in all cases: cell-based
Conditions in all cases: Homo sapiens, compound 5 hours at 37° C., 1% DMSO, percent vehicle fit to 4 parameter curve
Aβ-40 = Aβ-40 level in conditioned media of 2B7 cells (MSD 3-PLEX ELISA)
Aβ-42 = Aβ-42 level in conditioned media of 2B7 cells (MSD 3-PLEX ELISA)
In short: (§1)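 2B7 cells at confluence were exposed to compound dilutions in medium (1% DMSO final) for 5 h at 37 °C. Conditioned medium, diluted 1:1 in blocking buffer, was assayed by MSD 3-plex electrochemiluminescence ELISA, and levels were read from a seven-point standard curve. IC50 came from a 4-parameter fit of percent-of-vehicle values.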

Aβ-38 = Aβ-38 level in conditioned media of 2B7 cells (MSD 3-PLEX ELISA)
In short: as §1

Compound | IC50 (Aβ-40) | IC50 (Aβ-42) | IC50 (Aβ-38)
CO[C@@H](C1C[C@@H](C)[C@H]2C(O1)[C@H](O)[C@@]1(C)C3CC[C@H]4C(C)(C)[C@@H](O[C@H]5CNCCO5)CC[C@@]45CC35CC[C@]21C)C(C)(C)O (stereo partly drawn) | 1000 to 10000 nM | < 1000 nM | < 1000 nM
CCO[C@@H]([C@H]1C[C@@H](C)[C@H]2[C@H](O1)[C@H](O)[C@@]1(C)[C@@H]3CC[C@H]4C(C)(C)[C@@H](O[C@H]5CN([C@H](C)COC)CCO5)CCC45C[C@@]35CC[C@]21C)C(C)(C)O (stereo partly drawn) | > 10000 nM | < 1000 nM | 1000 to 10000 nM
CCO[C@@H]([C@H]1C[C@@H](C)[C@H]2[C@H](O1)[C@H](O)[C@@]1(C)[C@@H]3CC[C@H]4C(C)(C)[C@@H](O[C@H]5CN(Cc6ccn(C)n6)CCO5)CCC45C[C@@]35CC[C@]21C)C(C)(C)O (stereo partly drawn) | > 10000 nM | < 1000 nM | 1000 to 10000 nM
CCO[C@@H]([C@H]1C[C@@H](C)[C@H]2[C@H](O1)[C@H](O)[C@@]1(C)[C@@H]3CC[C@H]4C(C)(C)[C@@H](O[C@H]5CN([C@@H](C)COC)CCO5)CC[C@@]45C[C@@]35CC[C@]21C)C(C)(C)O | > 10000 nM | < 1000 nM | 1000 to 10000 nM
CCO[C@@H]([C@H]1C[C@@H](C)[C@H]2[C@H](O1)[C@H](O)[C@@]1(C)[C@@H]3CC[C@H]4C(C)(C)[C@@H](O[C@H]5CN(Cc6ncc[nH]6)CCO5)CCC45C[C@@]35CC[C@]21C)C(C)(C)O (stereo partly drawn) | 1000 to 10000 nM | < 1000 nM | < 1000 nM
